Test results reported in patent US20070172844A1, “Individualized cancer treatments” (University of South Florida, priority 2005, published 2007).

Tests used:
[1] = system: adriamycin treated patients; conditions: Evans et al data set, n=122; cited from earlier work
[2] = system: ovarian cancer cell lines; assay: Cell proliferation assays (percent reduction in growth at 96 hrs), 12 ovarian cancer cell lines, Examples 2 and 3; format: cell-based, human
Description: Cell Culture—All liquid media as well as the Thiazolyl Blue Tetrazolium Bromide were purchased from Sigma Aldrich (St. Louis, Mo.). The Src inhibitor SU6656 and the Topotecan hydrochloride were purchased from Calbiochem (San Diego, Calif.). The ovarian cancer cell lines, OV90, OVCA5, TOV21G, and TOV12D were grown as recommended by the supplier (ATCC, Rockville, Md.). FUOV1, a human ovarian carcinoma, was grown according to the supplier (DSMZ; Braunschweig, Germany). Seven additional cell lines (C13, OV2008, A2780CP, A2780S, IGROV1, T8, IMCC3) were provided by Dr. Patricia Kruk, College of Medicine (University of South Florida, Fla.). All of those seven cell lines were grown in RPMI 1640, supplemented with 10% Fetal Bovine Serum, 1% sodium pyruvate, and 1% non essential amino acids. All tissue culture reagents were obtained from Sigma (UK).
Cell proliferation assays—Growth curves for cells were produces out by plating at 500-10,000 cells per well of a 96-well plate. The growth of cells at 12 hr time points (from t=12 hrs) was determined using the CellTiter 96 Aqueous One 23 Solution Cell Proliferation Assay Kit by Promega, which is a calorimetric method for determining the number of growing cells. […] Cumulatively, these experiments determined the concentration of cells to use for each cell line, as well as the dosing range of the inhibitors. […] Sensitivity to topotecan and a Src inhibitor (SU6656), both single alone and combined was determined by quantifying the percent reduction in growth (versus DMSO controls) at 96 hrs. […]
In the analysis of the various oncogenic pathways, analysis of expression data was done as previously described in Bild A, et al., Nature 439:353-357, 2006 and West M, et al., Proc. Natl. Acad. Sci. USA 2001;98(20):11462-7). […] Each oncogenic signature summarizes its constituent genes as a single expression profile, and is derived as the first principal component of that set of genes (the factor corresponding to the largest singular value) as determined by a singular value decomposition. […]

[3] = system: ovarian cancer cell lines; assay: Cell proliferation assays (MTS, percentage reduction in growth at 120 hr), Example 1; format: cell-based, human; conditions: inhibition of proliferation vs probability of pathway activation
Description: Cell lines and RNA extraction-The ovarian cancer cell lines, OV90, TO[…], and TO[…] were grown as recommended by the supplier (ATCC, Rockville, Md.). FUOV1, a human ovarian carcinoma, was grown according to the supplier (DSMZ, Braunschweig, Germany). Eight additional cell lines (C13, OV2008, A2780CP, A2780S, IGROV1, T8, OVCAR5 and IMCC3) were provided by Dr. Patricia Kruk, Department of Pathology, College of Medicine (University of South Florida, Tampa, Fla.). […] All tissue culture reagents were obtained from Sigma Aldrich (St. Louis, Mo.). Total RNA was extracted from each cell line and assayed on the Human 133 plus 2.0 arrays. Cell proliferation assays-Assays measuring cell proliferation and the effects of targeted agents have been described previously^36. Briefly, growth curves for the ovarian cancer cell lines were carried out by plating 300-4000 cells per well of a 96-well plate. The growth of cells at 12 hr time points (from t=12 hrs) was determined using the CellTiter 96 Aqueous One Solution Cell Proliferation Assay Kit by Promega, which is a colorimetric method for determining the number of growing cells. […] The degree of proliferation inhibition was plotted as a function of probability of Src pathway activation or E2F3 pathway activation.

breast cancer patients = conditions: Breast Tumor Data; published neoadjuvant data sets (MDACC TFAC n=51, complete pathologic response; single agent docetaxel n=24); cited from earlier work
[4] = system: advanced ovarian cancer patients; assay: Clinical response to salvage chemotherapy (topotecan, paclitaxel, docetaxel); format: in vivo, human; conditions: for Actual Overall response: Ovarian, single agent salvage therapy
Excerpt: Classification of topotecan response—Response to therapy was retrospectively evaluated from the medical record using standard criteria for patients with measurable disease, based upon WHO guidelines (Miller A B, et al., Cancer 1981;47:207-14). CA-125 was used to classify responses only in the absence of a measurable lesion; CA-125 response criteria were based on established guidelines (Miller A B, et al. Cancer 1981;47:207-14; Rustin G J, et al., Ann. Onco. 110:21-27, 1999). […] A complete response (CR) was defined as a complete disappearance of all measurable and assessable disease or, in the absence of measurable lesions, a normalization of the CA-125 level following topotecan therapy. A partial response (PR) was considered a 50% or greater reduction in the product obtained from measurement of each bi-dimensional lesion for at least 4 weeks or a drop in the CA-125 by at least 50% for at least 4 weeks. Progressive disease (PD) was defined as a 50% or greater increase in the product from any lesion documented within 8 weeks of initiation of therapy, the appearance of any new lesion within 8 weeks of initiation of therapy, or any increase in the CA-125 from baseline at initiation of therapy. Stable disease (SD) was defined as disease not meeting any of the above criteria.
Tissues—We measured expression of 22,283 genes in 12 ovarian cancer cell lines and 48 advanced (FIGO stage III/IV) serous epithelial ovarian carcinomas using Affymetrix U133A GeneChips. All ovarian cancers were obtained at initial cytoreductive surgery from patients treated at H. Lee Moffitt Cancer Center & Research Institute or Duke University Medical Center. All patients received topotecan as salvage chemotherapy after initial platinum based therapy. All tissues were collected under the auspices of a respective institutional IRB approved protocol with written informed consent.
Classification of topotecan response in tumors—Response to therapy was retrospectively evaluated from the medical record using standard criteria for patients with measurable disease, based upon WHO guidelines ((Miller A B, et al., Cancer 1981;47:207-14). CA-125 was used to classify responses only in the absence of a measurable lesion; CA-125 response criteria were based on established guidelines (Miller A B, et al. Cancer 1981;47:207-14; Rustin G J, et al., Ann. Onco. 110:21-27, 1999). A complete responder was defined as a complete disappearance of all measurable and assessable disease or, in the absence of measurable lesions, a normalization of the CA-125 level following topotecan therapy. Non-responders/patients with progressive disease (PD) were defined as a 50% o or greater increase in the primary lesion(s) documented within 8 weeks of initiation of therapy or the appearance of any new lesion within 8 weeks of initiation of therapy.
Full details of the methods used for RNA extraction and development of gene expression signatures representing deregulation of oncogenic pathways in the tumor samples are recently described.^36 Response to therapy was evaluated using standard criteria for patients with measurable disease, based upon WHO guidelines.^28

[5] = system: ovarian cancer cell lines; assay: Cell proliferation assay (MTT, 96 hrs), topotecan and SU6656 in 13 ovarian cell lines; format: cell-based, human; conditions: 13 ovarian cancer cell lines
Description: Cell proliferation assays. Growth curves for cells were produced by plating 500-10,000 cells per well in 96-well plates. The growth of cells at 12 hr time points (from t=12 hrs) was determined using the CellTiter 96 Aqueous One 23 Solution Cell Proliferation Assay Kit by Promega, which is a colorimetric method for determining the number of growing cells.^36 The growth curves plot the growth rate of cells vs. each concentration of drug tested against individual cell lines. Cumulatively, these experiments determined the concentration of cells to use for each cell line, as well as the dosing range of the inhibitors. The final dose-response curves in our experiments plot the percent of cell population responding to the chemotherapy vs. the concentration of the drug for each cell line. Sensitivity to docetaxel and a phosphatidylinositol 3-kinase (PI3 kinase) inhibitor (LY-294002)^36 in 17 lung cell lines, and topotecan and a Src inhibitor (SU6656) in 13 ovarian cell lines was determined by quantifying the percent reduction in growth (versus DMSO controls) at 96 hrs using a standard MTT colorimetric assay.^36 Concentrations used ranged from 1-10 nM for docetaxel, 300 nM-10 μM (SU6656), and 300 nM-[…] for LY-294002. All experiments were repeated at least three times.

## COc1cccc2c1C(=O)c1c(O)c3c(c(O)c1C2=O)C[C@@](O)(C(=O)CO)C[C@@H]3O[C@H]1C[C@H](N)[C@H](O)[C@H](C)O1 [Adriamycin, adriamycin]
[1]
  Actual Overall response: 24/122 (19.6%)

## CC[C@H](CO)Nc1nc(NCc2ccccc2)c2ncn(C(C)C)c2n1 [CYC202/R-Roscovitine]
[2]; ovarian cancer cell lines
  relationship between predicted adriamycin resistance and sensitivity to cdk inhibitor: coincides with sensitivity to R-Roscovitine
[3]
  relationship between predicted pathway deregulation (Src or E2F3) and drug sensitivity: clear and statistically significant relationship

## CC(=O)O[C@@]12CO[C@@H]1C[C@H](O)[C@@]1(C)C(=O)[C@H](O)C3=C(C)[C@@H](OC(=O)[C@H](O)[C@@H](NC(=O)OC(C)(C)C)c4ccccc4)C[C@@](O)([C@@H](OC(=O)c4ccccc4)[C@H]21)C3(C)C [Docetaxel, docetaxel]
Breast cancer patients
  Actual Overall response: 13/24 (54.1%)
[4]
  Actual Overall response: 7/14 (50%)

## CC(=O)O[C@H]1C(=O)[C@@]2(C)[C@H]([C@H](OC(=O)c3ccccc3)[C@]3(O)C[C@H](OC(=O)[C@H](O)[C@@H](NC(=O)c4ccccc4)c4ccccc4)C(C)=C1C3(C)C)[C@]1(OC(C)=O)CO[C@@H]1C[C@@H]2O [Paclitaxel, paclitaxel]
[4]
  Actual Overall response: 20/35 (57.1%)

## CN(C)S(=O)(=O)c1ccc2c(c1)/C(=C/c1cc3c([nH]1)CCCC3)C(=O)N2 [SU6656]
[2]; 12 ovarian cancer cell lines
  relationship between predicted src-pathway deregulation and response to src-inhibitor alone: clear relationship
[2]; growth inhibition, 12 ovarian cancer cell lines
  effect of Src inhibitor on sensitivity to topotecan: increases ovarian cancer cell line sensitivity to topotecan
[3]
  relationship between predicted pathway deregulation (Src or E2F3) and drug sensitivity: clear and statistically significant relationship
[5]
  relationship between probability of topotecan resistance and sensitivity to Src pathway inhibitor: significant linear relationship

## CC[C@@]1(O)C(=O)OCc2c1cc1n(c2=O)Cc2cc3c(CN(C)C)c(O)ccc3nc2-1 [Topotecan, topotecan]
[4]
  Actual Overall response: 20/48 (41.6%)
[4]; of 48 patients, non-responder = PD
  patients classified as topotecan non-responders: 18
[4]; of 48 patients, responder = CR, PR or SD
  patients classified as topotecan responders: 30

## N.N.[Cl][Pt][Cl] [cisplatin]
[3]
  relationship between predicted pathway deregulation (Src or E2F3) and drug sensitivity: no evident relationship
